Read-outs that look alike come from different tables or passages of the source.
How the values were obtained:
[1] = Water solubility / BCS classification of the compound of chemical formula 1; assay type: physicochemical
[2] = Stability evaluation of the crystalline form of Example 1 (ICH long-term and accelerated storage, HPLC; PXRD); assay type: physicochemical; conditions: for Content / Total impurities: HPLC
Experimental: The stability of the crystalline solid of the compound of chemical formula 1 prepared by Example 1 was evaluated. According to the ICH guideline, the stability test was conducted under long-term storage (25±2° C., 60±5% RH) and accelerated (40±2° C., 75±5% RH) conditions. The analysis was performed using HPLC to evaluate the change in content and the occurrence of impurities, and the results are shown in Table 1 below.
For a BCS Class 2 substance such as the compound of chemical formula 1, it is very important that the crystalline form remains stable under storage conditions. The more insoluble a substance is, the greater the impact of changes in crystallinity on the quality of the final product is. The change in the crystalline form causes changes in hygroscopicity, stability, dissolution, etc.

[3] = Comparative pharmacokinetic test of the formulation in beagle dog, Experimental Example 8; assay type: in vivo; conditions: for AUC(0-t) / Cmax / Tmax / half-life / Vd/F / CL/F: beagle, dog, plasma; for Vd/F: read-out: Vz(terminal)/F; for CL/F: CL(inf)/F
Experimental: By applying the conditions of Preparation Example 10, tablets containing 25, 50, and 100 mg of the crystalline solid of chemical formula 1 as a pharmaceutical raw material were manufactured. An experiment was conducted to analyze the pharmacokinetic characteristics of the manufactured tablets after oral administration to a beagle dog.
The compound of chemical formula 1 was administered orally to a beagle dog as a single dose of 25, 50, and 100 mg tablets/head, orally as a single dose of 25 mg liquid/head, and intravenously as a single dose of 2 mg/kg. Blood samples were collected before (0) and 15, 30 min, 1, 1.5, 2, 4, 6, 8, 10, 16, and 24 hr after administration of the test substance to measure the blood concentration of the compound of chemical formula 1.
The preparation for single oral administration in liquid/head was prepared by homogeneously suspending 275 mg of the compound of chemical formula 1 in 220 ml of pre-prepared 2.5% HP-PCD (sterile water solution) to obtain 1.25 mg/ml. In addition, the preparation for single intravenous administration was prepared by dissolving 300 mg of the compound of chemical formula 1 in 150 ml of pre-prepared 10% HP-PCD (sterile water solution) to obtain 2 mg/ml.

[4] = accelerated 40±2°C, 75±5% RH, 1 months
[5] = accelerated 40±2°C, 75±5% RH, 3 months
[6] = accelerated 40±2°C, 75±5% RH, 6 months
[7] = accelerated 40±2°C, 75±5% RH, Initial
[8] = long-term storage 25±2°C, 60±5% RH, 1 months
[9] = long-term storage 25±2°C, 60±5% RH, 3 months
[10] = long-term storage 25±2°C, 60±5% RH, 6 months
[11] = long-term storage 25±2°C, 60±5% RH, 12 months
[12] = long-term storage 25±2°C, 60±5% RH, Initial
[13] = iv, 2 mg/kg, 2 mg/kg solution (iv), 10% HP-PCD, single dose, beagle dog plasma
[14] = po, 25 mg, 25 mg solution (po), per head, suspended in 2.5% HP-PCD, single dose, beagle dog plasma
[15] = po, 25 mg, 25 mg tablet (po), per head, single dose, beagle dog plasma
[16] = po, 50 mg, 50 mg tablet (po), per head, single dose, beagle dog plasma
[17] = po, 100 mg, 100 mg tablet (po), per head, single dose, beagle dog plasma

SMILES: C[C@@H]1CN(c2ccc(S(C)(=O)=O)cc2F)CCN1c1nccc(C(=O)NC2C3CC4CC2CC(O)(C4)C3)n1 (stereo partly drawn) [chemical formula 1, 2-((R)-4-(2-fluoro-4-(methylsulfonyl)phenyl)-2-methylpiperazin-1-yl)-N-((1R,2s,3S,5S,7S)-5-hydroxyadamantan-2-yl)pyrimidine-4-carboxamide]
- Biopharmaceutics classification system (BCS) class [1]: Class 2 (high permeability, low solubility)
- solubility according to pH [1]: does not have the characteristic of improving solubility according to pH
- solubility ([1]; water): ≤ 1 µg/mL
- Content [2, 4]: 99.6%
- Total impurities [2, 4]: 0.43%
- Content [2, 5]: 100.8%
- Total impurities [2, 5]: 0.44%
- Content [2, 6]: 100.0%
- Total impurities [2, 6]: 0.42%
- Content [2, 7]: 99.9%
- Total impurities [2, 7]: 0.34%
- Content [2, 8]: 99.5%
- Total impurities [2, 8]: 0.43%
- Content [2, 9]: 99.3%
- Total impurities [2, 9]: 0.41%
- Content [2, 10]: 100.5%
- Total impurities [2, 10]: 0.43%
- Content [2, 11]: 99.7%
- Total impurities [2, 11]: 0.45%
- Content [2, 12]: 99.9%
- Total impurities [2, 12]: 0.34%
- crystalline form (PXRD) of stored stability samples ([2]; stored 3, 6 and 12 months (12 months long-term only)): the crystalline form did not change
- CL(inf)/F ([3]; 2 mg/kg solution (iv), 10% HP-PCD, single dose, beagle dog plasma): 5.5 mL/min/kg
- BA ([3]; 25 mg solution (po), per head, single dose, beagle dog): 45.82 % F
- BA ([3]; 25 mg tablet (po), per head, single dose, beagle dog): 44.31 % F
- average absorption (AUClast) of the tablet administration group relative to the liquid administration group ([3]; 25 mg/head po, beagle dog): 96.7%
- BA ([3]; 50 mg tablet (po), per head, single dose, beagle dog): 35.37 % F
- BA ([3]; 100 mg tablet (po), per head, single dose, beagle dog): 25.40 % F
- AUC(0-t) [3, 13]: 6180 ng·h/mL
- Cmax [3, 13]: 1160 ng/mL
- Tmax [3, 13]: 0.25 h
- half-life [3, 13]: 4.07 h
- AUC(0-t) [3, 14]: 3370 ng·h/mL
- Cmax [3, 14]: 393 ng/mL
- Tmax [3, 14]: 1.5 h
- half-life [3, 14]: 6.32 h
- Vd/F [3, 14]: 58.5 L
- AUC(0-t) [3, 15]: 3260 ng·h/mL
- Cmax [3, 15]: 420 ng/mL
- Tmax [3, 15]: 2 h
- half-life [3, 15]: 4.42 h
- Vd/F [3, 15]: 49.4 L
- CL/F [3, 14]: 6.9 L/h
- CL/F [3, 15]: 8.04 L/h
- AUC(0-t) [3, 16]: 5210 ng·h/mL
- Cmax [3, 16]: 666 ng/mL
- Tmax [3, 16]: 2 h
- half-life [3, 16]: 5.29 h
- Vd/F [3, 16]: 79.3 L
- CL/F [3, 16]: 10.2 L/h
- AUC(0-t) [3, 17]: 7480 ng·h/mL
- Cmax [3, 17]: 899 ng/mL
- Tmax [3, 17]: 1.75 h
- half-life [3, 17]: 6.89 h
- Vd/F [3, 17]: 119 L
- CL/F [3, 17]: 12.8 L/h

Source: US20260055066A1, “CRYSTALLINE FORM OF PYRIMIDINE-4-CARBOXAMIDE COMPOUND AND ORAL PHARMACEUTICAL FORMULATION CONTAINING SAME” (J2H BIOTECH INC., priority 2022, published 2026)
